A short description of the data set: rat acute oral toxicity. Conditions: in vivo.

The record followed here is the CATMoS acute toxicity set (Mansouri et al. 2021).

Molecules are shown by their SMILES. Several values for one entry are separate records, joined by “and”; a condition that tells them apart may be missing. Equal values may be shown once.

Consider `O=[N+]([O-])OCC(CO[N+](=O)[O-])O[N+](=O)[O-]`, for which the LD50 is 105 mg/kg.

`CCOc1ccc(CCCCCCC(C)C)cc1` registered an LD50 of 5600 mg/kg.

Take `CCCCC(Oc1ccc([N+](=O)[O-])cc1C=O)C(=O)O` (stereo not drawn): the LD50 was 500 mg/kg. This LD50 is about 11-fold lower than that of the compound before.

`O=[N+]([O-])c1cc(Cl)ccc1Cl` returned an LD50 of 1000 mg/kg.

As for `c1cc[n+]2c(c1)-c1cccc[n+]1CC2`, the LD50 is 220 mg/kg and 120 mg/kg.

`CN(C)c1nc(=O)n(C2CCCCC2)c(=O)n1C`: the LD50 worked out at 1200 mg/kg.

Take `CC(C)OC(=O)Cl`: the median lethal dose (LD50) worked out at 468 mg/kg. This LD50 lies about 2.6-fold lower than the previous one.

Compound `CN1CCC[C@H]1c1cccnc1` registered an LD50 of 51.2 mg/kg.

On to `COc1nn(CSP(=S)(OC)OC)c(=O)s1`, for which the LD50 stood at 20 mg/kg.

In turn, `CC1(C)CC(=O)CC(C)(C)N1` showed a 50% lethal dose (LD50) of 1330 mg/kg.

Turning to `COP(=S)(OC)Oc1ccc([N+](=O)[O-])c(C)c1`, the LD50 is 250 mg/kg.

`COc1ccccc1NC(=O)CC(C)=O` gave an LD50 of 1600 mg/kg.

As for `N=C(N)N`, the LD50 was 475 mg/kg and 730 mg/kg.

As to `C1CCSC1`, the LD50 was determined as 1750 mg/kg.

In turn, `O=C1c2ccccc2C(=O)N1SC(Cl)(Cl)Cl` registered an LD50 of 2640 mg/kg.

Take `O=C(O)CCS`: the median lethal dose (LD50) worked out at 63 mg/kg.

Regarding `O=C(O)c1ccccc1`, the LD50 was 1700 mg/kg. This LD50 is about 27-fold higher than that of the compound before.

`COP(=S)(OC)SCc1nc(N)nc(N)n1` displayed an LD50 of 890 mg/kg. Against the preceding compound, the LD50 is about 1.9-fold lower.

`CC(C)N(C(=O)COc1nnc(C(F)(F)F)s1)c1ccc(F)cc1` showed an LD50 of 480 mg/kg.

In the case of `COC(=O)CC(C)=O`, the 50% lethal dose (LD50) came out at 2580 mg/kg. Compared with the last compound, the LD50 is about 5.4-fold higher.

Compound `S=C=S` showed a 50% lethal dose (LD50) of 1200 mg/kg.

`NC(=O)c1cccnc1`: the LD50 came out at 3500 mg/kg.

On to `O=C(O)c1cc(Oc2ccc(C(F)(F)F)cc2Cl)ccc1[N+](=O)[O-]`, for which the LD50 was 1300 mg/kg.

Turning to `CC1(C)[C@H](C(=O)O[C@@H](C#N)c2cccc(Oc3ccccc3)c2)[C@@H]1C=C(Cl)Cl` (single isomer, unassigned), the median lethal dose (LD50) turned out to be 57 mg/kg.

`CCCN(CCC)C(=O)SCC` had an LD50 of 916 mg/kg.

Compound `CC(C)(c1ccc(O)cc1)c1cccc(C(C)(C)c2ccc(O)cc2)c1` gave an LD50 of 5460 mg/kg. Against the preceding compound, the LD50 is about 6-fold higher.

Take `CCCCSP(SCCCC)SCCCC`: the LD50 worked out at 910 mg/kg.

`CCCCCCCCOC(=O)c1cc(O)c(O)c(O)c1` showed an LD50 of 1960 mg/kg.

For `CCC(C)n1c(=O)[nH]c(C)c(Br)c1=O` (stereo not drawn), the LD50 was determined as 641 mg/kg.

As to `Nc1ccc([N+](=O)[O-])cc1`, the LD50 came out at 750 mg/kg.

Consider `CCOCn1c(-c2ccc(Cl)cc2)c(C#N)c(Br)c1C(F)(F)F`, for which the median lethal dose (LD50) is 560 mg/kg.

`CCCCCCCCCCC(N)CO` (stereo not drawn) came in with an LD50 of 300 mg/kg. This LD50 lies about 1.9-fold lower than the previous one.

Regarding `Sc1ccccc1`, the median lethal dose (LD50) worked out at 46 mg/kg.

`NCCO` displayed an LD50 of 1720 mg/kg. This LD50 lies about 37-fold higher than the previous one.

Take `Cc1ccc(N)cc1C`: the LD50 came to 810 mg/kg.

`ClCC(Cl)Cl` returned an LD50 of 836 mg/kg.

`CC(=O)Oc1ccccc1C(=O)O` displayed an LD50 of 1280 mg/kg.

For `COP(=O)(NC(C)=O)SC` (stereo not drawn), the LD50 worked out at 700 mg/kg.

In turn, `COC(=O)CC(=O)CC(=O)OC` gave an LD50 of 4480 mg/kg. This LD50 lies about 6.4-fold higher than the previous one.

In turn, `CCCCC(CC)(CO)CO` returned a 50% lethal dose (LD50) of 2800 mg/kg.

As to `COC(=O)/C=C\C(=O)OC`, the median lethal dose (LD50) was determined as 1410 mg/kg.

As for `O=c1n(Cl)c(=O)n(Cl)c(=O)n1Cl`, the LD50 stood at 406 mg/kg.

Take `NNC(=O)c1ccncc1`: the LD50 came to 650 mg/kg.

For `CCC(C(c1ccc(Cl)cc1)c1ccc(Cl)cc1)[N+](=O)[O-]` (stereo not drawn), the LD50 is 300 mg/kg. Compared with the last compound, the LD50 is about 2.2-fold lower.

The compound `CCOP(=S)(OCC)SCSP(=S)(OCC)OCC` gave an LD50 of 13 mg/kg.

`O=C1CCCN1` gave an LD50 of 328 mg/kg.

`CCCCCCCCCc1ccc(OP(Oc2ccc(CCCCCCCCC)cc2)Oc2ccc(CCCCCCCCC)cc2)cc1`: the LD50 is 10000 mg/kg.

As to `CC(C)C(Nc1ccc(C(F)(F)F)cc1Cl)C(=O)OC(C#N)c1cccc(Oc2ccccc2)c1` (stereo not drawn), the LD50 was 261 mg/kg. Against the preceding compound, the LD50 is about 38-fold lower.

On to `CCCCCCCCOC(=O)c1ccccc1C(=O)OCCCCCCCC`, for which the median lethal dose (LD50) stood at 47000 mg/kg.

For `OC(O)C(Cl)(Cl)Cl`, the LD50 was determined as 479 mg/kg. This LD50 lies about 98-fold lower than the previous one.

With `CC(C)C(=O)O`, the LD50 stood at 266 mg/kg.

The compound `CC1(C)[C@H](/C=C2\CCSC2=O)[C@@H]1C(=O)OCc1coc(Cc2ccccc2)c1` displayed an LD50 of 650 mg/kg.

`CN(CC[C@H](N)CC(O)=N[C@H]1C=C[C@H](n2ccc(=N)nc2O)O[C@@H]1C(=O)O)C(=N)N` displayed an LD50 of 53.3 mg/kg.

Take `Cc1ccccc1C`: the LD50 is 3520 mg/kg.

`Clc1ccc(C(c2ccc(Cl)cc2)C(Cl)(Cl)Cl)cc1` showed an LD50 of 87 mg/kg. This LD50 is about 40-fold lower than that of the compound before.

In the case of `CCOc1ccc(NC(C)=O)cc1`, the LD50 was 1650 mg/kg.

With `O=P(O)(O)CCCl`, the LD50 came to 3400 mg/kg. This LD50 is about 2.1-fold higher than that of the compound before.

`CC1(C)C(=O)N(Br)C(=O)N1Cl` showed an LD50 of 485 mg/kg. Compared with the last compound, the LD50 is about 7-fold lower.

In the case of `S=c1[nH]c(=S)[nH]c(=S)[nH]1`, the LD50 turned out to be 1180 mg/kg.

Consider `CC(O)CO` (stereo not drawn), for which the LD50 stood at 20000 mg/kg. Compared with the last compound, the LD50 is about 17-fold higher.

The compound `OCCCl` had an LD50 of 58 mg/kg.

As for `CC1=CC(C)(C)CC(=O)C1`, the LD50 was 1500 mg/kg.

`OCCOCCOCCOCCO` displayed an LD50 of 32700 mg/kg.

Regarding `C#CCOC(=O)[C@@H](C)Oc1ccc(Oc2ncc(Cl)cc2F)cc1`, the LD50 was found to be 2230 mg/kg.

Turning to `Clc1ccc(C(Cl)Cl)cc1`, the LD50 was determined as 1910 mg/kg.

The compound `CC(C)(C)CC(C)(C)c1ccc(OCCO)cc1` showed a 50% lethal dose (LD50) of 1800 mg/kg. This LD50 and that of the compound before are within 1.5-fold of each other.

In turn, `CCOP(=O)(OCC)OP(=O)(OCC)OCC` registered an LD50 of 0.5 mg/kg.

`CCCCCCCCCCCCNC(=N)N`: the LD50 worked out at 566 mg/kg.
